From patent publication US8513303B2, “Antimicrobial agent” (De Montfort University, priority 2007, dated 2013)

What was measured:
[1] = tested on: Staphylococcus aureus ATCC 6538; test: Antimicrobial activity of PAN catalyst during reuse; format: cell-based; conditions: room temperature, 1% w/v H2O2, no air
Experimental: (§1) PAN catalyst was assessed for antimicrobial activity at first use, 48 hours after first use, 48 hours after second use and six months after first use using the same experimental conditions as described previously (see testing antimicrobial activity section).

[2] = tested on: Escherichia coli ATCC 10536; test: as above; format: cell-based; conditions: 0.2% w/v H2O2, no air
Experimental: as §1

Compound: OO [Example H2O2, hydrogen peroxide]
- Mean log10 reduction in CFU/ml ([1]; 10 min): 0.54 log10 CFU/ml
- Mean log10 reduction in CFU/ml ([1]; 20 min): 1.18 log10 CFU/ml
- Mean log10 reduction in CFU/ml ([1]; 30 min): 2.68 log10 CFU/ml
- Mean log10 reduction in CFU/ml ([1]; 40 min): 3.56 log10 CFU/ml
- Mean log10 reduction in CFU/ml ([1]; 50 min): 4.62 log10 CFU/ml
- Mean log10 reduction in CFU/ml ([1]; 60 min): 5.08 log10 CFU/ml
- Mean log10 reduction in CFU/ml ([2]; 35° C., 10 min): 2.46 log10 CFU/ml
- Mean log10 reduction in CFU/ml ([2]; 35° C., 20 min): 3.77 log10 CFU/ml
- Mean log10 reduction in CFU/ml ([2]; 35° C., 30 min): ≧5.30 log10 CFU/ml
- Mean log10 reduction in CFU/ml ([2]; 35° C., 30 min, listed as hydrogen peroxide): greater than or equal to 5.30 log10 CFU/ml
- Mean log10 reduction in CFU/ml ([2]; 35° C., 40 min): >5.50 log10 CFU/ml
- Mean log10 reduction in CFU/ml ([2]; 35° C., 50 min): >5.50 log10 CFU/ml
- Mean log10 reduction in CFU/ml ([2]; 35° C., 60 min): >5.50 log10 CFU/ml
- Mean log10 reduction in CFU/ml ([2]; room temperature, 10 min): 1.01 log10 CFU/ml
- Mean log10 reduction in CFU/ml ([2]; room temperature, 20 min): 2.08 log10 CFU/ml
- Mean log10 reduction in CFU/ml ([2]; room temperature, 30 min): 3.28 log10 CFU/ml
- Mean log10 reduction in CFU/ml ([2]; room temperature, 40 min): 4.00 log10 CFU/ml
- Mean log10 reduction in CFU/ml ([2]; room temperature, 50 min): 5.17 log10 CFU/ml
- Mean log10 reduction in CFU/ml ([2]; room temperature, 60 min): >5.50 log10 CFU/ml
